From patent publication US20170087129A1, “COMPOSITIONS AND METHODS FOR THE TREATMENT OF ATHEROSCLEROTIC CARDIOVASCULAR DISEASES WITH PDE4 MODULATORS” (Celgene Corporation, priority 2014, published 2017)

What was measured:
THP-1 cells = assay: Inhibition of foam cell formation in THP-1 cells (Oil Red O staining); assay type: cell-based; conditions: THP-1 cells + PMA, 50 μg/ml acLDL + 500 U/ml IFN-γ; two doses of 100 nM compound; versus vehicle samples; light microscopy
Protocol: THP-1 cells in suspension were maintained in RPMI 1640 media (PenStep, 10% FBS, 37° C., 5% CO2). The cells plated at 10^5-10^6 cells/well in 24-well plate (500 uL/well). Cell count was 34 at 1:20 and 1:30 dilution. Then, 100 nM PMA was added to allow for differentiation into macrophages, and the mixture was incubated for 24 hours. To the mixture, was added 500 U/mL IFN-gamma, and the resulting mixture was incubated for another 24 hours.
For vehicles, 50 μg/ml of acLDL and 500 U/ml IFN-γ were added to the cells. For those samples that received treatment by Compound A1, a first dose of 100 nM of Compound A1 was added 15 minutes before the addition of acLDL, and a second dose of 100 nM Compound A1 was added after 24 hours. Then, media was removed, and cells washed three times with PBS and fixed in 10% formalin for 10 minutes. Cells were rinsed in PBS (1 minute) and then with 60% isopropanol (15 seconds). Samples were stained with Oil Red O in darkness for 1 minute at 37° C. Samples were rinsed again in 60% isopropanol, then three times with PBS. Wells were kept hydrated until imaging, and samples were visualized using light microscopy.

[1] = test system: PDE4 enzyme from U937 human monocytic cells; assay: Inhibition of PDE4 (enzyme assay, [3H]-cAMP); assay type: biochemical; conditions: purified PDE4 enzyme from U937 human monocytic cells; 1 μM cAMP, 45 min at 30° C.
Protocol: Phosphodiesterase 4 enzyme was purified from U937 human monocytic cells by gel filtration chromatography, and phosphodiesterase reactions were carried out as previously described. See, e.g., Muller et al., Bioorg. Med. Chem. Lett., 1998, 8(19): 2669-2674. Briefly, reactions were carried out in 96-well deep-well plates in 50 mM Tris HCl pH 7.5, 5 mM MgCl2, 1 μM cyclic adenosine monophosphate (cAMP), plus 10 nM [^3H]-cAMP for 45 min at 30° C. The reactions were terminated by boiling, treated with 1 mg/ml snake venom, and separated using AG-1X8 ion exchange resin (BioRad). Reactions consumed less than 15% of available substrate.

Structure (SMILES) | formation of foam cells (THP-1 cells) | IC50 [1]
CCOc1cc([C@H](CS(C)(=O)=O)N2C(=O)c3cccc(NC(C)=O)c3C2=O)ccc1OC [Compound A2, (R)—N-(2-(1-(3-ethoxy-4-methoxyphenyl)-2-(methylsulfonyl)ethyl)-1,3-dioxoisoindolin-4-yl)acetamide] | effective in preventing or inhibiting the formation of foam cells | 
CCOc1cc([C@@H](CS(C)(=O)=O)N2C(=O)c3cccc(NC(C)=O)c3C2=O)ccc1OC [Compound A1, (S)—N-(2-(1-(3-ethoxy-4-methoxyphenyl)-2-(methylsulfonyl)ethyl)-1,3-dioxoisoindolin-4-yl)acetamide] | significantly reduced formation of foam cells | ~74 nM
